According to article PMC7566913, “Dual Gene Delivery Reagents From Antiproliferative Alkylphospholipids for Combined Antitumor Therapy” (Frontiers in Chemistry, 2020):
“And” between values parts separate entries of the source, which are not always exact repeats. Equal values may be shown once. Read-outs that look alike come from different tables or passages of the source.

Key:
[1] = Hydrolytic stability of the APL prodrugs monitored by 31P-NMR; assay type: physicochemical
Description: Aqueous formulation of the APL prodrugs produces nanosized lipid aggregates that most likely enter cells through the endocytosis pathway. To produce the expected intrinsic antineoplastic effect, APL-derived phosphotriesters need to be processed into the bioactive parent APLs. The hydrolysis of the prodrugs may be under the control of a chemical stimulus, e.g., a pH decrease as observed during the maturation of endosomes, or of degradation enzymes that massively enter the endosome compartment when continuing to lysosomes. To get some information on the transformation of pro-APLs into APLs, we monitored the hydrolysis of these compounds over time, at pH 7.4 and 4.5, conditions that mimick the extracellular milieu and the environment of the late endosome, respectively. This monitoring was realized using ^31P-NMR spectroscopy, according to a previously reported method (Pierrat et al., [2013b]). Whatever the compound investigated, only one single ^31P resonance did appear during the course of the experiments, corresponding to that of the parent APL. This confirmed that hydrolysis of the pro-APLs selectively occurred at the acetal center. […] As a general trend, hydrolysis of the pro-APLs was […] under neutral conditions (i.e., pH 7.4) than under acidic ones (i.e., pH 4.5). […] Besides, substitution of one hydrogen atom with a methyl group on the acetal bridge accelerated the rate of hydrolysis of the prodrugs. […] Indeed, in biological media, the enzyme-mediated hydrolysis of such compounds can proceed far quicker than “simple” chemical hydrolysis under pH control (Pierrat et al., [2012]). […]

H292 cells [2] = assay: Cytotoxicity, MTT assay, H292; assay type: cell-based, human
Description: (§1) The cells were exposed for a 24-h period to increasing concentration of the pro-APLs, ranging from 500 nM to 1 mM, and cell viability was assessed using the MTT colorimetric assay (Mosmann, [1983]). For the three cell lines, viability decreased in a dose-dependent manner in response to APLs and pro-APLs (Supplementary Figures 2–4). Using the best-fit regression curve method, the IC50 value (concentration that provokes 50% inhibition of the cell growth) was calculated for each compound (Table 4). The three cell lines responded to the compounds with varying sensitivities. […] This is attributed to enzyme-mediated hydrolysis of the pro-APL compounds in the complemented culture medium or in the intracellular compartment, competing with pure pH-controlled chemical hydrolysis. According to its structure, a pro-APL may or not be a substrate for specific lipases and, thus, may or not be hydrolyzed into the parent cytotoxic compound. […]
(§2) At confluency, cells were released […]
(§3) Cells were seeded into 96-well plates (Becton-Dickinson) at the required density (vide supra) in 100 µL of serum containing culture medium. […]
(§4) Mitochondrial activity measurements (MTT assay) was used to assess cytotoxicity of the compounds.
(§5) Lipid samples were prepared from a lipid film (3.6 µmol of compound evaporated from an ethanolic solution) hydrated with aqueous glucose 5 % and vigorously vortexed for 20 s before serial dilution in aqueous glucose 5 %. For addition of lipid samples to cell culture, part of the culture medium in the culture plates prepared the day before (25 µL) was removed and replaced by lipid samples (25 µL). Negative control was obtained by adding glucose 5 % to the cells instead of lipoplexes.
(§6) After a 24-h incubation period at 37 °C, culture supernatant was removed, cells were carefully washed with PBS and MTT (100 µL, 0.5 mg/mL) in complete culture medium was added. After a 1-h incubation period at 37 °C, the MTT sol ution was removed and DMSO (100 µL) was added to lyse cells and dissolve reduced MTT. Intensity of MTT reduction was then evaluated by measuring absorbance at 492 nm. Viability of cells treated with lipids or lipoplexes was expressed as the percentage of the absorbance measured in untreated cells. Value for each sample is the mean of triplicate determinations (± SD). IC50 values were determined within the 95 % confidence interval using nonlinear regression analysis with the GraphPad Prism software (GraphPad Software, San […]
(§7) All data are representative of a triplicate determination and are presented as the mean ± SD.
(§8) Statistical significance between treatments was assessed by one-way analysis of variance (ANOVA) followed by the Dunnett multiple comparison test, using the Kaleidagraph 4.5 software (Synergy Software, Reading, PA, USA). Data were considered as statistically significant for p value less than

[3] = CMC/CAC by pyrene fluorescent probe technique in ultrapure water; assay type: physicochemical; conditions: pyrene fluorescence
Description: The pro-APL molecules have been specifically engineered so they can be metabolized in situ under a biological stimulus to revert to the parent APL with antiproliferative activity. […] We thus aimed to determine the self-assembly properties of the APL prodrugs. […] Pyrene is a probe which fluorescence is sensitive to the polarity of the solubilizing medium. […] Fluorescence measurements were carried out in ultrapure water and data obtained for the various APLs and their prodrugs are shown in Table 2.
Pro-APLs Self-Assembly Properties
Starting from a lipid film, compounds were […]

[4] = Particle size and zeta potential of lipoplexes by DLS; assay type: physicochemical; conditions: lipoplexes with pCMV-Gluc, 25 °C, 5 % glucose, N/P 3, 1 molar equivalent of DOPE
Description: The capacity of the pro-APLs to interact electrostatically with nucleic acids and form lipoplexes was checked by standard agarose gel electrophoresis. […] The size (hydrodynamic diameter) and charge (zeta potential, ζ) of the lipoplexes prepared at an N/P ratio of 3 with one molar equivalent of dioleoyl-sn-glycero-3-phosphatidylethanolamine (DOPE), a lipid with fusogenic properties (Hui et al., [1996]; Zuhorn et al., [2005]), were investigated by DLS (Supplementary Table 1).
as measured by DLS. Lipoplexes were prepared at 25 °C, in 5 % glucose, at a N/P ratio of 3 and with
1 molar equivalent of DOPE.
(Gaillard et al., 2019). Data are the mean of three independent measurements (± SD).

16HBE cells [5] = assay: Cytotoxicity, MTT assay, 16HBE; assay type: cell-based, human; conditions: 24 h at 37°C
Description: as §1, §2, §3, §4, §5, §6, §7, §8

A549 cells [6] = assay: Cytotoxicity, MTT assay, A549; assay type: cell-based, human; conditions: A549, 24 h at 37°C
Description: as §1, §2, §3, §4, §5, §6, §7, §8

A549 cells [7] = assay: Gene transfer efficiency, pCMV-Gluc luciferase reporter gene assay; assay type: cell-based, human
Description: The efficacy of the pro-APLs to mediate intracellular delivery of a plasmid DNA was examined in A549 human lung epithelial carcinoma cells using the pCMV-Gluc reporter gene encoding the luciferase of Gaussia princeps. This luciferase is secreted by cells and transgene expression can be conveniently assessed by standard bioluminescence measurements on aliquots of the cell culture supernatant, without need for prior cell lysis. Lipoplexes were formulated in glucose 5% at N/P ratios of 1, 3, and 5, with increasing amounts of DOPE as a helper lipid. They were deposited onto cells in the presence of 10% serum and luciferase activity was measured after 24 h (Figure 3). […] The influence of the nature of the pendant hydrophobic arm was also examined.
To investigate the effect of serum on the gene delivery properties of the APL prodrugs, cells were treated with lipoplexes in the presence of an increasing concentration of serum (Figure 5). Two DNA doses were considered.
Figure 5 Transfection efficiency of pro-APLs ME12 (A), PE12 (B), and EE12 (C) as a function of serum content. Pro-APL/DNA complexes were prepared at N/P 3, with 1 molar eq. of DOPE. A549 cells (6,000 cells/well) were seeded into 96-well plates in 100 μL of culture medium containing 10% serum. Twenty-four hours later, cell supernatant was replaced with culture medium complemented with increasing amounts of serum (from 10 to 75%) just before adding the lipoplexes (0.2 and 0.4 μg of DNA per well; light and deep purple bars, resp.). Control (light blue bar) refers to basal bioluminescence measured in untreated cells. […] Statistical significance vs. control. ***p < 0.001, **p < 0.01, *p < 0.05.

[8] = design: method as in Gaillard et al., 2019; conditions: lipoplexes with pCMV-Gluc, N/P 3, 1 molar equivalent of DOPE; ref Gaillard et al., 2019; cited from earlier work
sheep RBC [9] = conditions: sheep RBC, 37°C, ref Gaillard et al., 2019, cited from earlier work
H292 cells [10] = system: H292 cells; design: method as in Gaillard et al., 2019; conditions: H292, 24 h at 37°C, MTT assay; ref Gaillard et al., 2019; cited from earlier work
16HBE cells [11] = system: 16HBE cells; design: method as in Gaillard et al., 2019; conditions: 24 h at 37°C, MTT assay, ref Gaillard et al., 2019; cited from earlier work
[12] = design: method as in Gaillard et al., 2019; conditions: pyrene fluorescence; ref Gaillard et al., 2019; cited from earlier work
[13] = design: method as in Gaillard et al., 2019; conditions: ref Gaillard et al., 2019, cited from earlier work
A549 cells [14] = system: A549 cells; design: method as in Gaillard et al., 2019; conditions: A549, 24 h at 37°C, MTT assay; ref Gaillard et al., 2019; cited from earlier work
sheep RBC [15] = assay: Hemolytic activity, red blood cell leakage assay; conditions: 37°C
Description: To evaluate this hypothesis, the hemolytic activity of the APLs and pro-APLs was measured. Sheep RBC were incubated for 1 h with escalating doses of aqueous dispersion of the compounds at 37°C. At the end of the incubation period, hemoglobin leakage was determined spectrophotometrically.
Thus, in order to better characterize the hemolytic effect of the pro-APLs, the incubation period has been extended and release of hemoglobin was measured after 24 h.
Red blood cell (RBC) leakage assay was carried out according to a previously described procedure
(Evans et al, 2013). RBC were prepared from defibrinated sheep blood. Briefly, blood sample (5 mL) was centrifuged at 500 x g for 5 min. After removal of the yellow upper layer, an equal volume of

[16] = design: method as in Yaseen et al., 2005; conditions: Du Noüy ring method; ref Yaseen et al., 2005; cited from earlier work
[17] = Langmuir trough method, cited from earlier work
red blood cells (RBC) = conditions: cited from earlier work
[18] = Homo sapiens, NCI-H292, H292, 24 h at 37°C

| Compound | CMC (APLs) / CAC (pro-APLs) [3] [µM] | Particle size of lipoplexes [8] | HA200 (hemolytic activity at 200 μM) (sheep RBC [9]; 1 h) [%] | HA200 (hemolytic activity at 200 μM) (sheep RBC [9]; 24 h) [%] | IC50 (H292 cells [10]) [µM] | IC50 (16HBE cells [11]) [µM] | CMC (APLs) / CAC (pro-APLs) [12] [µM] | H120 (hydrolysis rate after a 120-h incubation period) ([13]; pH 4.5) [%] | H120 (hydrolysis rate after a 120-h incubation period) ([13]; pH 7.4) [%] | IC50 (A549 cells [14]) [µM] | IC50 (H292 cells [2]; [18]) [µM] | IC50 (16HBE cells [5]; Homo sapiens) [µM] | HA200 (hemolytic activity at 200 μM) (sheep RBC [15]; 1 h) [%] | IC50 (A549 cells [6]; Homo sapiens) [µM] | further results |
| --- | --- | --- | --- | --- | --- | --- | --- | --- | --- | --- | --- | --- | --- | --- | --- |
| 3-((((((Dodecyloxy)carbonyl)oxy)ethoxy)(hexadecyloxy)phosphoryl)oxy)-N,N,N-trimethylpropan-1-aminium chloride [M C^′12] | 2.0 ± 0.7 |  |  |  |  |  |  |  |  |  |  |  |  |  | H120 (hydrolysis rate after a 120-h incubation period) ([1]; pH 4.5): 13%; H120 (hydrolysis rate after a 120-h incubation period) ([1]; pH 7.4): 14%; IC50 (H292 cells [2]; H292, 24 h at 37°C): 146 ± 37 µM; Particle size of lipoplexes [4]: 91 ± 3 nm; IC50 (16HBE cells [5]): 66 ± 27 µM; IC50 (A549 cells [6]): 48 ± 15 µM; Transfection rate relative to MC12 (A549 cells [7]; A549, pCMV-Gluc lipoplexes, 10% serum, 24 h): ca. 2 fold |
| CCCCCCCC/C=C\CCCCCCCCCCCCOP(=O)(OCCC[N+](C)(C)C)OC(C)OC(=O)OCCCCCCCCCCCC (stereo not shown) [E C^′12] |  | 92 ± 10 nm | < 1 | 7.3 ± 0.8 | 161 ± 25 | 257 ± 81 | 0.9 ± 0.2 | 5 | 6 | 179 ± 63 |  |  |  |  |  |
| CCCCCCCC/C=C\CCCCCCCCCCCCOP(=O)(OCCC[N+](C)(C)C)OC(C)OC(=O)CCCCCCCCCCC (stereo not shown) [E E^′12] |  | 149 ± 15 nm |  | 25.3 ± 2.6 | 73 ± 15 | 63 ± 7 | 1.1 ± 0.7 | 53 | 56 | 192 ± 44 |  |  |  |  | t1/2 (time needed for 50% hydrolysis) ([13]; pH 4.5): 104 h; t1/2 (time needed for 50% hydrolysis) ([13]; pH 7.4): 96 h |
| CCCCCCCC/C=C\CCCCCCCCCCCCOP(=O)(OCCC[N+](C)(C)C)OCOC(=O)OCCCCCCCCCCCC (stereo not shown) [EC12] |  | 117 ± 15 nm | < 1 | 9.6 ± 2.3 | 167 ± 56 | 252 ± 112 | 1.2 ± 0.2 | 1 | 8 | 161 ± 21 |  |  |  |  |  |
| CCCCCCCC/C=C\CCCCCCCCCCCCOP(=O)(OCCC[N+](C)(C)C)OCOC(=O)OCCCCCCCC/C=C\CCCCCCCC (stereo not shown) [EC18:1] |  | 611 ± 12 nm and 611 nm | < 1 | 20.9 ± 2.5 | 154 ± 40 | 238 ± 58 | 0.8 ± 0.4 | 0 | 10 | 326 ± 36 |  |  |  |  |  |
| CCCCCCCCCCCCCCCCOP(=O)(OCC[N+](C)(C)C)OCOC(=O)CCCCCCCCCCC.[Cl-] (stereo not shown) [ME12, 2-((((Dodecanoyloxy)methoxy)(hexadecyloxy)phosphoryl)oxy)-N,N,N-trimethylethan-1-aminium chloride] | 4.3 ± 2.5 |  |  |  |  |  |  |  |  |  | 52 ± 28 | 69 ± 26 | 18.0 ± 1.2 | 39 ± 7 | H120 (hydrolysis rate after a 120-h incubation period) ([1]; pH 4.5): 3%; H120 (hydrolysis rate after a 120-h incubation period) ([1]; pH 7.4): 20%; Particle size of lipoplexes [4]: 178 ± 8 nm; HA200 (hemolytic activity at 200 μM) (sheep RBC [15]; 24 h): 103.2 ± 3.6%; Serum content up to which significant transgene expression was mediated (A549 cells [7]; A549, N/P 3, 1 eq. DOPE, DNA dose 0.2 μg/well): up to 50 % serum; Serum content up to which transfection activity extended (A549 cells [7]; A549, N/P 3, 1 eq. DOPE, DNA dose 0.4 μg/well): up to 75 % serum |
| CCCCCCCCCCCCCCCCOP(=O)([O-])OCC[N+](C)(C)C [Miltefosine, reference compound] | 11.2 ± 2.3 |  |  |  |  |  |  |  |  |  | 70 ± 9 | 73 ± 8 | 90.8 ± 1.5 | 77 ± 15 | CMC [16]: 12 µM; CMC ([17]; ref Rakotomanga et al., 2004): 2.5 to 3.0 µM; HC50 (red blood cells (RBC); depending on the hematocrit, ref Alonso and Alonso, 2016): 34 to 51 µM; HC50 (red blood cells (RBC); ref Petit et al., 2019): 41 µM; CMC (APLs) / CAC (pro-APLs) ([3]; listed as miltefosine): 11.2 µM; HC50 (concentration provoking 50% hemolysis) (sheep RBC [15]; 1 h): 43 µM |
| CCCCCCCCCCCCCCCCCCOP(=O)([O-])OC1CC[N+](C)(C)CC1 [Perifosine, reference compound] | 4.4 ± 1.7 |  |  |  |  |  |  |  |  |  | 77 ± 3 | 116 ± 33 | 85.1 ± 4.0 | 127 ± 39 | CMC ([17]; ref Mravljak et al., 2005): 2.5 µM; Hemolysis (red blood cells (RBC); 24-h exposure to 5.4 μM, ref Egler and Lang, 2017): ca. 30%; CMC (APLs) / CAC (pro-APLs) ([3]; listed as perifosine): 4.4 µM; HC50 (concentration provoking 50% hemolysis) (sheep RBC [15]; 1 h): 46 µM |
